Assays:
[1] = tested on: 1321N1 astrocytoma cell line; assay: Antiproliferative activity (MTS), 1321N1; conditions: Homo sapiens, 1321-N1, 72 h, read-out: IC50 Values 1321N1
5-HT1A receptor = target: T1, 5-HT1A receptor (Homo sapiens, UniProt P08908); assay: [3H]-8-OHDPAT radioligand binding assay, 5-HT1A
T1 sequence (P08908 1-422): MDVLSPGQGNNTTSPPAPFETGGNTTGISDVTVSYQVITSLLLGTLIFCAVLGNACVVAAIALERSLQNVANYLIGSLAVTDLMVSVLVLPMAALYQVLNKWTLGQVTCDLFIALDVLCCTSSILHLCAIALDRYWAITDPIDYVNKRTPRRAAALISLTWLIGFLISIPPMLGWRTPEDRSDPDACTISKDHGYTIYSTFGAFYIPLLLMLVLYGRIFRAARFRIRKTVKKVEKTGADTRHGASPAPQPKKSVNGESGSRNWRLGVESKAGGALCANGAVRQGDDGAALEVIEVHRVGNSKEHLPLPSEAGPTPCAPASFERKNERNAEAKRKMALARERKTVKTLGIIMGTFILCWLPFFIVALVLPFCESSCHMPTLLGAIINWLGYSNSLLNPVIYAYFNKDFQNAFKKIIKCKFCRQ

[2] = Metabolic stability in mouse liver microsomes (MLMs); type: in vitro ADME; conditions: 120 min; for remaining at 2 h, 50 µM: mouse, mouse liver microsomes
Description: The metabolic stability of PR 68, PR 73, and PR 76 were determined in mouse liver microsomes (MLMs).
The metabolic stability of PR 68 was estimated with mouse liver microsomes (MLMs) (Sigma-Aldrich, St. Louis, MO, USA). […] Cold methanol was then added to the reaction mixture to quench the reaction. The precipitated MLMs were centrifuged, and the supernatant was analyzed by LC/MS with a Waters ACQUITY™ TQD system with a TQ detector (Waters, Milford, USA).
(1 picture or pasted object on this page, not shown here)

[3] = Affinity to phospholipids, IAM column (CHI IAM); type: physicochemical; conditions: IAM.PC.DD2 column, pH 7.4
Source text: We began with an assay for lipophilicity, affinity for phospholipids (for 40 compounds), and drug binding to human serum albumin (HSA) (for 20 compounds), using chromatographic protocols developed by Valko [46] and implemented in our laboratory [47]. […] These methods allowed the determination of chromatographic hydrophobicity indices (CHIs), binding to HSA (%HSA), and phospholipids (CHIIAM) using a single-gradient elution experiment and comparison to reference substances.
The mobile phase flow rate was 1.5 mL/min, and the column was maintained at 30 °C. • Chiralpak® HSA (50 mm × 4 mm; 5 µm with safety guard column; Daicel Chiral Technologies, West Chester, PA, USA), mobile phase A: 50 mM ammonium acetate, mobile phase B: HPLC-grade isopropanol (VWR International, Leuven, Belgium). For the first 15 min, the linear gradient from 0 to 20% isopropanol was applied and then held at 20% isopropanol for 12 min. In the last 5 min of the sequence, the mobile phase mixture received a pure ammonium acetate solution. The column temperature was held at 30 °C, whereas the flow rate was 0.9 mL/min.
The reference substances for the calibration of HSA, C18, and IAM columns were purchased, respectively: acetanilide, butyrophenone, diclofenac, and octanonophenone (Alfa Aesar, Haverhill, MA, USA); acetophenone, benzimidazole, colchicine, indole, indometacin, paracetamol, and theophylline (Sigma-Aldrich, Steinheim, Germany); nicardipine and nizatidine (Cayman Chemical, Ann Arbor, MI, USA); carbamazepine, heptanophenone, hexanophenone, propiophenone, and valerophenone (Acros Organic, Pittsburg, PA, USA). Before chromatographic experiments, solutes were dissolved in dimethyl sulfoxide (Avantor Performance Materials Poland S.A., Gliwice, Poland) to obtain a 200 µg/mL concentration. The detection was performed in the UV region at the wavelength from 190 nm to 300 nm. The injected volume was 5 μL, and each compound was analyzed in triplicate.

D2L receptor = D2L receptor (Homo sapiens, UniProt P14416); assay: [3H]-raclopride radioligand binding assay, D2
[4] = target: human serum albumin (HSA) (Homo sapiens, UniProt P02768); assay: Binding to HSA, Chiralpak HSA column; conditions: Chiralpak HSA column
Outline: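 HSA binding (%HSA) was estimated by HPLC on a Chiralpak HSA column at 30 °C and 0.9 mL/min. The gradient ran 0–20% isopropanol in 50 mM ammonium acetate over 15 min, then held 12 min. UV detection covered 190–300 nm, and values were calibrated against reference compounds, in triplicate.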

U87MG glioblastoma cells = assay: Antiproliferative activity (MTS), U87MG; conditions: Homo sapiens, U-87 MG, 72 h, read-out: IC50 Values U87MG
[5] = tested on: LN-229 glioblastoma cell line; assay: Antiproliferative activity (MTS), LN-229; conditions: Homo sapiens, LN-229, 72 h, read-out: IC50 Values LN-229
HEK293 = assay: Cytotoxic activity on HEK293; type: cell-based; conditions: Homo sapiens
Source text: Table 6 Extended receptor affinity study, with functional tests and cytotoxic activity of selected compounds on HEK293. | column: HEK293 / IC50 [µM]

[6] = tested on: HepG2 human hepatoma cell line; assay: Hepatotoxicity, MTS assay; type: cell-based; conditions: 1–10 µM, 48 h
Description: The safety profile was estimated in the hepatotoxicity assay in the hepatoma HepG2 cell line (Figure 2B).
Hepatotoxicity was evaluated employing an MTS assay with a HepG2 human hepatoma cell line (ATCC: HB-8065). In brief, the cells were incubated for 48 h in 96-well plates with PR 68 (concentration range: 1–100 μM), or doxorubicin (DX, 1 µM; Sigma-Aldrich), which served as a control. Compounds were tested in a single experiment in quadruplicate. The absorbance in the MTS assay was measured by the Spark Cyto microplate reader (Tecan, Männedorf, Switzerland).

5-HT5A receptor = 5-HT5A receptor (Homo sapiens, UniProt P47898); assay: [3H]-LSD radioligand binding assay, 5-HT5A
5-HT5A receptor, sequence (P47898 whole entry): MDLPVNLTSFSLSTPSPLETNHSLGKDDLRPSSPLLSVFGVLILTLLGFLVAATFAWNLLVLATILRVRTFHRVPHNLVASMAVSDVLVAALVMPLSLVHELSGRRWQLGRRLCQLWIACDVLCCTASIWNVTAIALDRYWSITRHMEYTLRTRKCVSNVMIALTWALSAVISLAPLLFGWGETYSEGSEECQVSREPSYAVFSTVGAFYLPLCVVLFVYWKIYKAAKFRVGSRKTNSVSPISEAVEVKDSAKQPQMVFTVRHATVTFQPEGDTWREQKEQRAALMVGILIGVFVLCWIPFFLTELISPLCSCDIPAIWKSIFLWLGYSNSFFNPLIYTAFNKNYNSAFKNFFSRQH

human serum albumin (HSA), sequence (P02768 25-609): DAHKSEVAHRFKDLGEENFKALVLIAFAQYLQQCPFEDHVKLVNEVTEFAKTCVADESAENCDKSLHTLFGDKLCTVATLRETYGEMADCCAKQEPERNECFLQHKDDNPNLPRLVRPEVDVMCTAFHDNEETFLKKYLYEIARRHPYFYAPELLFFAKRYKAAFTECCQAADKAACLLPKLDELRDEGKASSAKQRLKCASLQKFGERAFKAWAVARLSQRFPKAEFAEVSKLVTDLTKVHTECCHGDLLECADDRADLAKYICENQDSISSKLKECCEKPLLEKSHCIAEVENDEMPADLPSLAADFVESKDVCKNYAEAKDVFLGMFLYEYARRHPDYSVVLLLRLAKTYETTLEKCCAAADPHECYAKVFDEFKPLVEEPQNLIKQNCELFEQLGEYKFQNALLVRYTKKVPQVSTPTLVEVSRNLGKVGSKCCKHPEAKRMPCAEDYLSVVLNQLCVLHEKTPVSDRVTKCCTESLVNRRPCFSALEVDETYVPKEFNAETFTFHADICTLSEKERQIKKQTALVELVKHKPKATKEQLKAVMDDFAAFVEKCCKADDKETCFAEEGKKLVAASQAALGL
D2L receptor, sequence (P14416 whole entry): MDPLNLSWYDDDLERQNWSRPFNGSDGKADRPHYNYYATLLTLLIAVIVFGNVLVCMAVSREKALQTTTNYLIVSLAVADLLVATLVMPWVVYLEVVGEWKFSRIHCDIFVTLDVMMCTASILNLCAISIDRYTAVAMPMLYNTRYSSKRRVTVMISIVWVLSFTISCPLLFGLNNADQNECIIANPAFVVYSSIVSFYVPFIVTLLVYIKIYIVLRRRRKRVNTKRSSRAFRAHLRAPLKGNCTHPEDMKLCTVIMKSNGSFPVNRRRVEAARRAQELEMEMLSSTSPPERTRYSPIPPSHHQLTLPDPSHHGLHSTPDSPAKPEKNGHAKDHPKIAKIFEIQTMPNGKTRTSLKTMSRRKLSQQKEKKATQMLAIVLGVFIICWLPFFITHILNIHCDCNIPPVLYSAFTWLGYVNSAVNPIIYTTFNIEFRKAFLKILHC

Row | Compound | IC50 [1] [µM] | Ki (5-HT1A receptor) [µM] | remaining at 2 h, 50 µM [2] [%] | CHI IAM [3] | Ki (D2L receptor) [µM] | %HSA [4] [%] | logKHSA [4] | IC50 (U87MG glioblastoma cells) [µM] | IC50 [5] [µM] | IC50 (HEK293) [µM] | hepatotoxicity, HepG2 viability [6] | metabolized [2] [%] | Ki (5-HT5A receptor) [µM]
1 | CC1NC(NS(=O)(=O)c2cccc3ccccc23)=Nc2cccc(F)c21 (stereo not shown) [PR 73, N -(5-fluoro-4-methyl-3,4-dihydroquinazolin-2-yl)naphthalene-1-sulfonamide] | > 25 | 80 | 24.6 | 42.3 | 146 | 96.6 | 1.3 | > 25 | > 25 |  |  |  | 
2 | CC1NC(NS(=O)(=O)c2cccc3ccccc23)=Nc2cccc(Cl)c21 (stereo not shown) [PR 68, N -(5-chloro-4-methyl-3,4-dihydroquinazolin-2-yl)naphthalene-1-sulfonamide] | > 25 | 35.1 | 51.1 | 45.8 | 622 | 97.7 | 1.5 | > 25 | > 25 | 81.8 | did not exhibit hepatotoxic properties | 49 | 1.11

From article PMC11477289, “Low-Basicity 5-HT6 Receptor Ligands from the Group of Cyclic Arylguanidine Derivatives and Their Antiproliferative Activity Evaluation” (International Journal of Molecular Sciences, 2024)
